In patent US9353104B2, “Substituted pyridizinone derivatives as PDE10 inhibitors” (priority 2013, dated 2016) one finds Ki data, which are given here for 13 compounds.

In general, Ki refers to the dissociation constant of the complex between target and ligand, obtained from inhibition or displacement.

Structures are written as SMILES. Bounds are passed on as bounds.

human PDE10A2, sequence (Q9Y233 267-1055): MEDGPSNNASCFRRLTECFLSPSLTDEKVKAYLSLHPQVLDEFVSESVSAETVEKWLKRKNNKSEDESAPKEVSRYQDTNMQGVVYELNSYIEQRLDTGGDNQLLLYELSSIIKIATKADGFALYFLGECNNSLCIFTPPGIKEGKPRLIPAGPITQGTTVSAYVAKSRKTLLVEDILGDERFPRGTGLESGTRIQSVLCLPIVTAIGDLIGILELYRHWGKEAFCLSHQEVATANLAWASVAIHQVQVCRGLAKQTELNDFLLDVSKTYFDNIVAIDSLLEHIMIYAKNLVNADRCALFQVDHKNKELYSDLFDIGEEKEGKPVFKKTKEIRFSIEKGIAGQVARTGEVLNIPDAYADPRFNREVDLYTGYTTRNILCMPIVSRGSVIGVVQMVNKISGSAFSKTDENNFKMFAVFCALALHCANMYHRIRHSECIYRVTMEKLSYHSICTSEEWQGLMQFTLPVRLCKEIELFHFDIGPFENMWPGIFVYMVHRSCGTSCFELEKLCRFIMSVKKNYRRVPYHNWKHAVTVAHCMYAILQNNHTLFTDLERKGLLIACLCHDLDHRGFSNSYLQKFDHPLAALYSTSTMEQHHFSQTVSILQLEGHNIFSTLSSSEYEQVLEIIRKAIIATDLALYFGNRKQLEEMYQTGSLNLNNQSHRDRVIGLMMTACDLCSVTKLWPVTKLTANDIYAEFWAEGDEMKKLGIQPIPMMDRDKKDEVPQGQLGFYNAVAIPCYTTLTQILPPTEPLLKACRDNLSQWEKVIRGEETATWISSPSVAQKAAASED

This experiment deals with human PDE10A2 (Homo sapiens (Human), UniProt Q9Y233). The experiment can be described thus: PDE10 fluorescence polarization (IMAP FP) inhibition assay. The format is biochemical. The settings on record: human PDE10A2 lysate, FAM-labeled cAMP 50 nM, room temperature; read-out: PDE10A Ki. As to the method:
The activity of the compounds in accordance with the present invention as PDE10 inhibitors may be readily determined without undue experimentation using a fluorescence polarization (FP) methodology that is well known in the art (Huang, W., et al., J. Biomol Screen, 2002, 7: 215). […] In a typical experiment the PDE10 inhibitory activity of the compounds of the present invention was determined in accordance with the following experimental method. PDE10A2 was amplified from human fetal brain cDNA (Clontech, Mountain View, Calif.) using a forward primer corresponding to nucleotides 56-77 of human PDE10A2 (Accession No. AF127480, Genbank Identifier 4894716), containing a Kozak consensus sequence, and a reverse primer corresponding to nucleotides 2406-2413 of human PDE10A2 (Accession No. AF127480, Genbank Identifier 4894716). Amplification with Easy-A polymerase (Stratagene, La Jolla, Calif.) was 95° C. for 2 minutes followed by thirty three cycles of 95° C. for 40 seconds, 55° C. for 30 seconds, and 72° C. for 2 minutes 48 seconds. Final extension was 72° C. for 7 minutes. The PCR product was TA cloned into pcDNA3.2-TOPO (Invitrogen, Carlsbad, Calif.) according to standard protocol. AD293 cells with 70-80% confluency were transiently transfected with human PDE10A2/pcDNA3.2-TOPO using Lipofectamine 2000 according to manufacturer specifications (Invitrogen, Carlsbad, Calif.). Cells were harvested 48 hours post-transfection and lysed by sonication (setting 3, 10×5 sec pulses) in a buffer containing 20 mM HEPES, 1 mM EDTA and protease inhibitor cocktail (Roche). Lysate was collected by centrifugation at 75,000×g for 20 minutes. Supernatant containing the cytoplasmic fraction was used for evaluation of PDE10A2 activity. The fluorescence polarization assay for cyclic nucleotide phosphodiesterases was performed using an IMAP® FP kit supplied by Molecular Devices, Sunnyvale, Calif. (product #R8139). IMAP® technology has been applied previously to phosphodiesterase assays (Huang, W., et al., J. Biomol Screen, 2002, 7: 215). Assays were performed at room temperature in 384-well microtiter plates with an incubation volume of 20.2 μL. Solutions of test compounds were prepared in DMSO and serially diluted with DMSO to yield 8 μL of each of 10 solutions differing by 3-fold in concentration, at 32 serial dilutions per plate. 100% inhibition is determined using a known PDE10 inhibitor, which can be any compound that is present at 5,000 times its Ki value in the assay described as follows, such as papaverine (see Siuciak, et al. Neuropharmacology (2006) 51:386-396; Becker, et al. Behav Brain Res (2008) 186(2):155-60; Threlfell, et al., J Pharmacol Exp Ther (2009) 328(3):785-795), 2-{4-[pyridin-4-yl-1-(2,2,2-trifluoroethyl)-1H-pyrazol-3-yl]phenoxymethyl}quinoline succinic acid or 2-[4-(1-methyl-4-pyridin-4-yl-1H-pyrazol-3-yl)-phenoxymethyl]quinoline succinic acid (see Schmidt, et al. J Pharmacol Exp Ther (2008) 325:681-690; Threlfell, et al., J Pharmacol Exp Ther (2009) 328(3): 785-795). 0% of inhibition is determined by using DMSO (1% final concentrations).
A Labcyte Echo 555 (Labcyte, Sunnyvale, Calif.) is used to dispense 200 nL from each well of the titration plate to the 384 well assay plate. A solution of enzyme (1/1600 dilution from aliquots; sufficient to produce 20% substrate conversion) and a separate solution of FAM-labeled cAMP PDE from Molecular Devices (product #R7506), at a final concentration of 50 nM are made in the assay buffer (10 mM Tris HCl, pH 7.2, 10 mM MgCl2, 0.05% NaN3 0.01% Tween-20, and 1 mM DTT). The enzyme and the substrate are then added to the assay plates in two consecutive additions of 10 μL, and then shaken to mix. The reaction is allowed to proceed at room temperature for 30 minutes. A binding solution is then made from the kit components, comprised of 80% Solution A, 20% Solution B and binding reagent at a volume of 1/600 the total binding solution.
For orientation: In fluorescence polarisation assays a small probe gives low polarisation when free and higher when bound to something large.
Turning to `Cc1ccc([C@H]2C[C@@H]2COc2cc(NCc3c(C)nn(C)c3Cl)c(=O)n(C)n2)nc1` [Example 38, 4-((5-chloro-1,3-dimethyl-1H-pyrazol-4-yl)methyl-amino)-2-methyl-6-(((1S,- 2S)-2-(5-methyl-pyridin-2-yl)cyclopropyl)methoxy)-pyridazin-3(2H)-one], the Ki was determined as 1.53 nM.

For `COc1ccc([C@H]2C[C@@H]2COc2cc(NCc3c(C)nn(C)c3Cl)c(=O)n(C)n2)nc1` [Example 39, 4-((5-chloro-1,3-dimethyl-1H-pyrazol-4-yl)methylamino)-6-(((1S,2S)-2-(5-methoxypyridin-2-yl)cyclopropyl)methoxy)-2-methylpyridazin-3(2H)-one], the Ki came to 1.58 nM.

Take `Cc1nn(C)c(Cl)c1CNc1cc(OC[C@H]2C[C@@H]2c2ccn(C)n2)nn(C)c1=O` [Example 40]: the inhibition constant (Ki) came to 11.8 nM.

Regarding `Cn1ccc([C@H]2C[C@@H]2COc2cc(NCc3nccs3)c(=O)n(C)n2)n1` [Example 47, 2-methyl-6-(((1S,2S)-2-(1-methyl-1H-pyrazol-3-yl)cyclopropyl)methoxy)-4-((thiazol-2-ylmethyl)amino)pyridazin-3(2H)-one], the Ki amounted to 8.21 nM.

`Cc1nc(CNc2cc(OC[C@H]3C[C@@H]3c3ccn(C)n3)nn(C)c2=O)cs1` [Example 48]: the Ki was > 100 nM.

Take `COc1ccc([C@H]2C[C@@H]2COc2cc(NCc3ccc(C)nc3C)c(=O)n(C)n2)nc1` [Example 50, 4-(((2,6-dimethylpyridin-3-yl)methyl)amino)-6-(((1S,2S)-2-(5-methoxypyridin-2-yl)cyclopropyl)methoxy)-2-methylpyridazin-3(2H)-one]: the Ki was found to be 0.003 nM.

For the compound `Cc1ccc(CNc2cc(OC[C@H]3C[C@@H]3c3ccn(C)n3)nn(C)c2=O)c(C)n1` [Example 51, 4-(((2,6-dimethylpyridin-3-yl)methyl)amino)-2-methyl-6-(((1S,2S)-2-(1-methyl-1H-pyrazol-3-yl)cyclopropyl)methoxy)-pyridazin-3(2H)-one], the Ki amounted to 0.023 nM.

As to `Cc1ccc([C@H]2C[C@@H]2COc2cc(NCc3ccc(C)nc3C)c(=O)n(C)n2)nc1` [Example 52, 4-(((2,6-dimethylpyridin-3-yl)methyl)amino)-2-methyl-6-(((1S,2S)-2-(5-methylpyridin-2-yl)cyclopropyl)methoxy)-pyridazin-3(2H)-one], the Ki is 0.007 nM.

Regarding `Cc1ccc(CNc2cc(OC[C@H]3C[C@@H]3c3ccc(F)cn3)nn(C)c2=O)c(C)n1` [Example 53, 4-(((2,6-dimethylpyridin-3-yl)methyl)amino)-6-(((1S,2S)-2-(5-fluoro-pyridin-2-yl)cyclopropyl-)-methoxy)-2-methyl-pyridazin-3(2H)-one], the Ki worked out at 0.034 nM.

Turning to `Cc1ccc(CNc2cc(OC[C@H]3C[C@@H]3c3ccc(Cl)cn3)nn(C)c2=O)c(C)n1` [Example 54], the inhibition constant Ki came to 0.019 nM.

For the compound `Cc1ccc(CNc2cc(OC[C@H]3C[C@@H]3c3ccccn3)nn(C)c2=O)c(C)n1` [Example 55, 4-(((2,6-dimethylpyridin-3-yl)methyl)amino)-2-methyl-6-(((1S,2S)-2-(pyridin-2-yl)cyclopropyl-)-methoxy)pyridazin-3(2H)-one], the Ki worked out at 0.021 nM.

Regarding `Cc1ccc(CNc2cc(OC[C@H]3C[C@@H]3c3ccc4c(n3)CCC4)nn(C)c2=O)c(C)n1` [Example 56, 6-(((1S,2S)-2-(6,7-dihydro-5H-cyclopenta-[b]pyridin-2-yl)cyclo-propyl)methoxy)-4-(((2,6-dimethylpyridin-3-yl)-methyl)amino)-2-methyl-pyridazin-3(2H)-one], the inhibition constant Ki amounted to 0.002 nM.

In the case of `Cc1ccc(CNc2cc(OC[C@H]3C[C@@H]3c3ccc4ccccc4n3)nn(C)c2=O)c(C)n1` [Example 57, 4-(((2,6-dimethylpyridin-3-yl)methyl)amino)-2-methyl-6-(((1S,2S)-2-(quinolin-2-yl)cyclopropyl)methoxy)-pyridazin-3(2H)-one], the Ki was found to be 0.004 nM.
